According to publication PMC6237192 (European journal of medicinal chemistry, 2018):

Tests used:
[1] = system: MT4 cells; assay: Cytotoxicity; type: cell-based, human; conditions: ratio of CC50 to IC50
[2] = system: HIV-1NL4-3 (subtype B); assay: Antiviral activity in MT-4 human T-lymphoid cells exposed to HIV-1NL4-3; type: cell-based; conditions: Human immunodeficiency virus 1, MT4, in Homo sapiens

Row | IC50 [2] [nM] | Compound | Selectivity Index [1]
1 | – | COc1ccc(S(=O)(=O)N(CC(C)C)C[C@@H](O)[C@H](Cc2ccccc2)NC(=O)c2ccc3c(c2)[C@@H](NC(=O)OC(C)(C)C)CCS3(=O)=O)cc1 [Inhibitor 4e, tert-Butyl ((S)-6-(((2S,3R)-3-hydroxy-4-((N-isobutyl-4-methoxyphenyl)sulfonamido)-1-phenylbutan-2-yl)carbamoyl)-1,1-dioxidothiochroman-4-yl)carbamate] | >2128
2 | 30 | CC(C)CN(C[C@@H](O)[C@H](Cc1ccccc1)NC(=O)O[C@H]1CCOC1)S(=O)(=O)c1ccc(N)cc1 [amprenavir] | –
